{"source": "paper PMC3234597", "about": "“Two Panels of Steroid Receptor Luciferase Reporter Cell Lines for Compound Profiling” (Combinatorial Chemistry & High Throughput Screening, 2011)", "format_in_all_cases": "cell-based", "key": {"human ERβ (full-length)": {"molecular_target": "T1, human ERβ (full-length) (Homo sapiens, UniProt Q92731)", "T1 construct": "expression vectors encoding full-length steroid receptors: pcDNA3-hERα and pcDNA3-ERβ; expressed in transfected cells; host or cells: U2OS", "T1 sequence (Q92731 whole entry)": "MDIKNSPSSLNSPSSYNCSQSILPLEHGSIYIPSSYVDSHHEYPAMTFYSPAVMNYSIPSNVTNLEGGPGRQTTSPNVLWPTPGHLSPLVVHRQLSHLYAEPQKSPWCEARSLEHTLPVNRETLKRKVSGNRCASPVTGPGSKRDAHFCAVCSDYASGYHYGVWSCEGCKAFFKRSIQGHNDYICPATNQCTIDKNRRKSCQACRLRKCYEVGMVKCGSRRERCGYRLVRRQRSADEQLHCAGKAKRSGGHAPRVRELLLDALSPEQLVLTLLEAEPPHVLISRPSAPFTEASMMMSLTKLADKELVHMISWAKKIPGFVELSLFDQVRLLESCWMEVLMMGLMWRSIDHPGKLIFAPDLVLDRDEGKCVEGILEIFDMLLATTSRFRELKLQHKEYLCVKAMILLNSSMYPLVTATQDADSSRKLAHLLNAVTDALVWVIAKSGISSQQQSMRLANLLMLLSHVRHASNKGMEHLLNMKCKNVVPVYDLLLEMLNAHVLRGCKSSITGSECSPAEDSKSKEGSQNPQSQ", "assay": "U2OS-ERβ/3xERE luciferase reporter cell line (full-length receptor)", "details": "read-out: Log EC50 (converted)"}, "MR-LBD fused to Gal4-DBD": {"molecular_target": "T2, MR-LBD fused to Gal4-DBD (Homo sapiens, UniProt P08235)", "T2 construct": "MR-LBD was cloned by RT-PCR from total RNA isolated from HEK293 cells; expressed in transfected cells; host or cells: U2OS", "T2 sequence (P08235 726-964 limits assumed)": "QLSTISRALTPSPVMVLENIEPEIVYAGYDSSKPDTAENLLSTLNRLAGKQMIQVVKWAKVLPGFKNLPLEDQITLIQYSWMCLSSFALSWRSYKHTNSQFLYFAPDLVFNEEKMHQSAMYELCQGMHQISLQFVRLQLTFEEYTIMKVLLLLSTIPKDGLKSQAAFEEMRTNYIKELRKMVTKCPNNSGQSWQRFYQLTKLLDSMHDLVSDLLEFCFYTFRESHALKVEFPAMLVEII", "assay": "U2OS-MR-LBD/9xGal4UAS luciferase reporter cell line", "details": "read-out: Log EC50 (converted)"}, "human MR (full-length)": {"molecular_target": "T3, human MR (full-length) (Homo sapiens, UniProt P08235)", "T3 construct": "expression vectors encoding full-length steroid receptors: pcDNA3-hAR, pcDNA3-hGR and pcDNA3-hMR; expressed in transfected cells; host or cells: U2OS", "T3 sequence (P08235 1-984)": "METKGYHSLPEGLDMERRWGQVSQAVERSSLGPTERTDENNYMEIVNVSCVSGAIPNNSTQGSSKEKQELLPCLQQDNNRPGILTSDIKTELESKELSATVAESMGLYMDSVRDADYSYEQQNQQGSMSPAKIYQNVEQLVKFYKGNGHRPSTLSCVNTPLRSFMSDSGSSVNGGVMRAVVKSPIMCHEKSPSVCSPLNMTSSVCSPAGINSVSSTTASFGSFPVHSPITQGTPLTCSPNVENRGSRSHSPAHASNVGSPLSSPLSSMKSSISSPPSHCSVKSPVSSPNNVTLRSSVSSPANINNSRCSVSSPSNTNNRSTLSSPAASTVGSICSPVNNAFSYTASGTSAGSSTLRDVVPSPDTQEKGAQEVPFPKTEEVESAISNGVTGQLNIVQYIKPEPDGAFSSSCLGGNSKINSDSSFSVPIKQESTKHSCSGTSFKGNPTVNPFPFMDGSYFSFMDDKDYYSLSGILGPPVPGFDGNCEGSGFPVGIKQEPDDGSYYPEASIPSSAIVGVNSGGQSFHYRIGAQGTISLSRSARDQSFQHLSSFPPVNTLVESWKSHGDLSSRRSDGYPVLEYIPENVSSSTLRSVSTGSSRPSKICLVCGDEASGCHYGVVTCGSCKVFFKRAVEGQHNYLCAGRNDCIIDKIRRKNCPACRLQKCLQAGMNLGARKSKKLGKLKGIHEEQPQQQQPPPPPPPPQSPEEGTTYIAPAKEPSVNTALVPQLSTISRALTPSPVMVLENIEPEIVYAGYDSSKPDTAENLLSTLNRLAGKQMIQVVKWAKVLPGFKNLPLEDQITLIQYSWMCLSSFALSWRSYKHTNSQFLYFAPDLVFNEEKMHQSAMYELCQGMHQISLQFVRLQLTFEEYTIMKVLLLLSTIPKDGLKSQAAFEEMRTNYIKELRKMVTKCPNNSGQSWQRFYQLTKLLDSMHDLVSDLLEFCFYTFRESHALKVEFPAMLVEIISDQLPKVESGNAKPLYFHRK", "assay": "U2OS-MR/MMTV luciferase reporter cell line (full-length receptor)", "details": "read-out: Log EC50 (converted)"}, "[1]": {"molecular_target": "T4, AR-LBD fused to Gal4-DBD (co-expressed with full-length AR) (Homo sapiens, UniProt P10275)", "T4 construct": "the following primers were used for the amplification of the LBD region; expressed in transfected cells; host or cells: U2OS", "T4 sequence (P10275 669-900 limits assumed)": "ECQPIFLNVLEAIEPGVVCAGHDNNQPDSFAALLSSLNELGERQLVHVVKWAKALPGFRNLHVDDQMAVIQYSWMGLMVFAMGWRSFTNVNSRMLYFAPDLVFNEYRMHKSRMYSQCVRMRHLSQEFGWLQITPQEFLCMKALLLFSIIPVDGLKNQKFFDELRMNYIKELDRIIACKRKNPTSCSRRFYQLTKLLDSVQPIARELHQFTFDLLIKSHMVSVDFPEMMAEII", "assay": "U2OS-AR-LBD/9xGal4UAS luciferase reporter cell line"}, "human AR (full-length) [2]": {"molecular_target": "T5, human AR (full-length) (Homo sapiens, UniProt P10275)", "T5 construct": "expression vectors encoding full-length steroid receptors: pcDNA3-hAR and pcDNA3-hGR; host or cells: U2OS", "T5 sequence (P10275 1-920)": "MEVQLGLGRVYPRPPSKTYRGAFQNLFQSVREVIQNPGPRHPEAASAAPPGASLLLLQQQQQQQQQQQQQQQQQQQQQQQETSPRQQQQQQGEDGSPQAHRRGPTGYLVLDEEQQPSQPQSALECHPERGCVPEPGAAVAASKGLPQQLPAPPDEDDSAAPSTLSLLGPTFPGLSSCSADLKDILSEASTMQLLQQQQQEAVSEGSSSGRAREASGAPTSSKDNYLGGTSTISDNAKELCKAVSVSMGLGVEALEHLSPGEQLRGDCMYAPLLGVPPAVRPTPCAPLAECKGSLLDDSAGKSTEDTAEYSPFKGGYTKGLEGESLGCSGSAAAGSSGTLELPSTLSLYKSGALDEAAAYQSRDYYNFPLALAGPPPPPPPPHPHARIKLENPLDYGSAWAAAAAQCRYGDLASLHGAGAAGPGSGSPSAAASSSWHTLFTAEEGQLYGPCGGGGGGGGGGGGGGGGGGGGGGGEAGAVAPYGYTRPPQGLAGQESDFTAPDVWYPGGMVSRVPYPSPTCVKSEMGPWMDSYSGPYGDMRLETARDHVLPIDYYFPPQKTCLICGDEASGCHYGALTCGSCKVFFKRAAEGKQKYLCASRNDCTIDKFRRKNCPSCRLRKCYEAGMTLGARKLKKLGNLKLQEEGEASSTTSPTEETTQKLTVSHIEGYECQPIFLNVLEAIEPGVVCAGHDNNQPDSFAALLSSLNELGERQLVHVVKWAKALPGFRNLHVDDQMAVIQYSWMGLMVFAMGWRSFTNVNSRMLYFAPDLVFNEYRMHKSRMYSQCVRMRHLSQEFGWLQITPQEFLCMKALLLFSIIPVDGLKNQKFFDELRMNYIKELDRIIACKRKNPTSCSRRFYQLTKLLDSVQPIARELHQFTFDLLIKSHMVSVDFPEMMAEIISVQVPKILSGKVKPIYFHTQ", "assay": "U2OS-AR/MMTV luciferase reporter cell line (full-length receptor)"}, "human AR (full-length) [3]": {"molecular_target": "T5, human AR (full-length)", "assay": "U2OS-AR/3xGRE luciferase reporter cell line (full-length receptor)"}, "[4]": {"molecular_target": "T6, ERβ-LBD fused to Gal4-DBD (Homo sapiens, UniProt Q92731)", "T6 construct": "region comprising ERβ-LBD and a piece of the hinge region; expressed in transfected cells; host or cells: U2OS", "T6 sequence (Q92731 264-498 limits assumed)": "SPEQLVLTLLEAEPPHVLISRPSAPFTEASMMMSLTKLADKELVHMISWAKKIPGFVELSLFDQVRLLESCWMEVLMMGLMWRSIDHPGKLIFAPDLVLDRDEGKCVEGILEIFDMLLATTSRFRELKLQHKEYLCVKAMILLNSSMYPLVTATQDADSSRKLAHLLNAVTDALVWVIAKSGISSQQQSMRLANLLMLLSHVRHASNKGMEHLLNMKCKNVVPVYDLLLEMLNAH", "assay": "U2OS-ERβ-LBD/9xGal4UAS luciferase reporter cell line", "details": "read-out: Log EC50 (converted)"}, "PR-LBD fused to Gal4-DBD": {"molecular_target": "T7, PR-LBD fused to Gal4-DBD (Homo sapiens, UniProt P06401)", "T7 construct": "PR-LBD region was PCR amplified using the following primer combination; host or cells: U2OS", "T7 sequence (P06401 679-913 limits assumed)": "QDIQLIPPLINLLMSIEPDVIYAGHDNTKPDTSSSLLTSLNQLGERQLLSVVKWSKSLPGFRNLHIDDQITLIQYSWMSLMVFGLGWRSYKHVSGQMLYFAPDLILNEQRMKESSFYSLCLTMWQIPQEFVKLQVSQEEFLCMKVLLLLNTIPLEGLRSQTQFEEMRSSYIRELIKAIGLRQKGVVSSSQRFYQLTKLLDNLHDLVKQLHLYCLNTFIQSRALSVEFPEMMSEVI", "assay": "U2OS-PR-LBD/9xGal4UAS luciferase reporter cell line"}}, "note": "pEC50, pIC50: −log10 of the molar value."}
{"smiles": "C[C@]12CCC(=O)C=C1CC[C@@H]1[C@@H]2[C@@H](O)C[C@@]2(C)[C@H]1CC[C@]2(O)C(=O)CO", "note": "[Cortisol, cortisol]", "values": [{"measurement": "EC50", "setting": "human ERβ (full-length)", "result": "> 10", "unit": "µM"}, {"measurement": "EC50", "setting": "MR-LBD fused to Gal4-DBD", "result": 0.0112, "unit": "µM"}, {"measurement": "EC50", "setting": "human MR (full-length)", "result": 0.00631, "unit": "µM"}, {"measurement": "pEC50", "setting": "[1]", "result": "< 5.00"}, {"measurement": "pIC50", "setting": "[1]", "result": "< 5.00"}, {"measurement": "pEC50", "setting": "human AR (full-length) [2]", "result": "< 5.00"}, {"measurement": "pIC50", "setting": "human AR (full-length) [2]", "result": "< 5.00"}, {"measurement": "pEC50", "setting": "human AR (full-length) [3]", "result": "< 5.00"}, {"measurement": "EC50", "setting": "[4]", "result": "> 10", "unit": "µM"}, {"measurement": "IC50", "setting": "PR-LBD fused to Gal4-DBD; antagonist mode, PR-LBD/9xGal4UAS, log10 of molar IC50, mean ± SEM, read-out: Log IC50 (converted)", "result": "> 10", "unit": "µM"}, {"measurement": "EC50", "setting": "PR-LBD fused to Gal4-DBD; read-out: Log EC50 (converted)", "result": 6.17, "unit": "µM"}]}
